Data as given in ChEMBL document CHEMBL5625206, “Design, synthesis, and evaluation of novel pleuromutilin aryl acrylate derivatives as promising broad-spectrum antibiotics especially for combatting multi-drug resistant gram-negative bacteria” (Eur J Med Chem, 2023).
≈ marks a conversion by molar mass, not a printed value. Calls of active or inactive are those of the source. The calls are words filed in the database; no cut-off is given here.

Tests used:
Staphylococcus aureus [1] = test: Bactericidal activity against methicillin-resistant Staphylococcus aureus ATCC 33591 at MIC incubated for 24 hrs by time kill assay relative to control; type: functional
Escherichia coli = test: Antibacterial activity against Escherichia coli ATCC 25922 assessed as bacterial growth inhibition incubated for 24 hrs by CLSI based broth microdilution method; type: functional
[2] = Cytotoxicity against HEK293 cells incubated for 24 hrs by CCK8 assay; type: toxicity, cell-based; settings: human
[3] = system: Staphylococcus epidermidis; test: Antibacterial activity against Staphylococcus epidermidis ATCC 12228 assessed as bacterial growth inhibition incubated for 24 hrs by CLSI based broth microdilution method; type: functional
Enterococcus = test: Antibacterial activity against vancomycin-resistant Enterococcus 80 clinical isolate assessed as bacterial growth inhibition incubated for 24 hrs by CLSI based broth microdilution method; type: functional
Klebsiella pneumoniae = test: Antibacterial activity against multidrug-resistant Klebsiella pneumoniae 893 clinical isolate assessed as bacterial growth inhibition incubated for 24 hrs by CLSI based broth microdilution method; type: functional
Acinetobacter baumannii [4] = test: Antibacterial activity against Acinetobacter baumannii ATCC 19606 assessed as bacterial growth inhibition incubated for 24 hrs by CLSI based broth microdilution method; type: functional
[5] = Cytotoxicity against human HepG2 cells incubated for 24 hrs by CCK8 assay; type: toxicity, cell-based
Pseudomonas aeruginosa = test: Antibacterial activity against multidrug-resistant Pseudomonas aeruginosa 126 clinical isolate assessed as bacterial growth inhibition incubated for 24 hrs by CLSI based broth microdilution method; type: functional
Staphylococcus aureus [6] = test: Antibacterial activity against Staphylococcus aureus ATCC 29213 assessed as bacterial growth inhibition incubated for 24 hrs by CLSI based broth microdilution method; type: functional
Staphylococcus aureus [7] = test: Bactericidal activity against methicillin-resistant Staphylococcus aureus ATCC 33591 at 2 to 4 times MIC incubated for 24 hrs by time kill assay relative to control; type: functional
Staphylococcus aureus [8] = test: Antibacterial activity against Staphylococcus aureus ATCC 25923 assessed as bacterial growth inhibition incubated for 24 hrs by CLSI based broth microdilution method; type: functional
Staphylococcus aureus [9] = test: Antibacterial activity against methicillin-resistant Staphylococcus aureus ATCC 33591 assessed as bacterial growth inhibition incubated for 24 hrs by CLSI based broth microdilution method; type: functional
[10] = Cytotoxicity against human A549 cells incubated for 24 hrs by CCK8 assay; type: toxicity, cell-based
Staphylococcus aureus [11] = test: Antibacterial activity against methicillin-resistant Staphylococcus aureus 171 clinical isolate assessed as bacterial growth inhibition incubated for 24 hrs by CLSI based broth microdilution method; type: functional
Staphylococcus aureus [12] = test: Antibacterial activity against methicillin-resistant Staphylococcus aureus 575 clinical isolate assessed as bacterial growth inhibition incubated for 24 hrs by CLSI based broth microdilution method; type: functional
Acinetobacter baumannii [13] = test: Antibacterial activity against carbapenem-resistant Acinetobacter baumannii 882 clinical isolate assessed as bacterial growth inhibition incubated for 24 hrs by CLSI based broth microdilution method; type: functional
Mycoplasmopsis synoviae = test: Anti-mycoplasma activity against Mycoplasmopsis synoviae MS-MVU1852-NCTC10124 assessed as bacterial growth inhibition incubated for 7 days; type: functional; settings: MS-MVU1852-NCTC10124, 168 h, time 7 day
[14] = system: Mesomycoplasma hyopneumoniae; test: Anti-mycoplasma activity against Mycoplasma hyopneumoniae LH-NCTC10130 assessed as bacterial growth inhibition incubated for 7 days; type: functional; settings: time 7 day
[15] = system: Mesomycoplasma hyopneumoniae; test: Anti-mycoplasma activity against Mycoplasma hyopneumoniae J-NCYC10110 assessed as bacterial growth inhibition incubated for 7 days; type: functional; settings: J-NCYC10110, 168 h, time 7 day
[16] = system: Mycoplasmoides gallisepticum; test: Anti-mycoplasma activity against Mycoplasma gallisepticum MG-R-NCTC10115 assessed as bacterial growth inhibition incubated for 7 days; type: functional; settings: MG-R-NCTC10115, 168 h, time 7 day
Mesomycoplasma hyorhinis = test: Anti-mycoplasma activity against Mycoplasma hyorhinis BTS-7-NCTC10130 assessed as bacterial growth inhibition incubated for 7 days; type: functional; settings: BTS-7-NCTC10130, 168 h, time 7 day
Staphylococcus aureus [17] = test: Antibacterial activity against methicillin-resistant Staphylococcus aureus ATCC 33591 infected in neutropenic Kunming mouse model assessed as bacterial load reduction in lung at 10 to 20 mg/kg, ip measured after 2 days; type: functional, organism-based; settings: dose 10-20 mg/kg, time 2.0 day
Staphylococcus aureus [18] = test: Antibacterial activity against methicillin-resistant Staphylococcus aureus ATCC 33591 infected in neutropenic Kunming mouse model assessed as reduction in infection-induced inflammatory cell inflammation in liver at 10 mg/kg, ip measured after 7 days; type: functional, organism-based; settings: time 7.0 day
[19] = Toxicity in neutropenic Kunming mouse model infected with methicillin-resistant Staphylococcus aureus ATCC 33591 assessed as survival rate at 10 mg/kg, ip measured after 7 days relative to control; type: organism-based; settings: in vivo, 168 h, time 7 day
Staphylococcus aureus [20] = test: Antibacterial activity against methicillin-resistant Staphylococcus aureus ATCC 33591 infected in neutropenic Kunming mouse model assessed as bacterial load reduction in kidney at 10 to 20 mg/kg, ip measured after 2 days; type: functional, organism-based; settings: dose 10-20 mg/kg, time 2.0 day
Staphylococcus aureus [21] = test: Antibacterial activity against methicillin-resistant Staphylococcus aureus ATCC 33591 infected in neutropenic Kunming mouse model assessed as reduction in infection-induced inflammatory cell inflammation in kidney at 10 mg/kg, ip measured after 7 days; type: functional, organism-based; settings: time 7.0 day
Staphylococcus aureus [22] = test: Antibacterial activity against methicillin-resistant Staphylococcus aureus ATCC 33591 infected in neutropenic Kunming mouse model assessed as reduction in infection-induced inflammatory cell inflammation in lung at 10 mg/kg, ip measured after 7 days; type: functional, organism-based; settings: time 7.0 day
[23] = Toxicity in neutropenic Kunming mouse model infected with methicillin-resistant Staphylococcus aureus ATCC 33591 assessed as survival rate at 5 mg/kg, ip measured after 7 days relative to control; type: organism-based; settings: in vivo, 168 h, time 7 day
Staphylococcus aureus [24] = test: Antibacterial activity against methicillin-resistant Staphylococcus aureus ATCC 33591 infected in neutropenic Kunming mouse model assessed as bacterial load reduction in liver at 10 to 20 mg/kg, ip measured after 2 days; type: functional, organism-based; settings: dose 10-20 mg/kg, time 2.0 day
[25] = Toxicity in neutropenic Kunming mouse model infected with methicillin-resistant Staphylococcus aureus ATCC 33591 assessed as survival rate at 20 mg/kg, ip measured after 7 days relative to control; type: organism-based; settings: in vivo, 168 h, time 7 day
Staphylococcus aureus [26] = test: Antibacterial activity against methicillin-resistant Staphylococcus aureus ATCC 33591 infected in neutropenic Kunming mouse model administered intraperitoneally measured after 7 days; type: functional; settings: ATCC 33591, 168 h, route ip, time 7 day

## C=C[C@]1(C)C[C@@H](OC(=O)CS[C@@H]2C[C@H]3CC[C@@H](C2)N3C)[C@]2(C)[C@H](C)CC[C@]3(CCC(=O)[C@H]32)[C@@H](C)[C@@H]1O [RETAPAMULIN]
Staphylococcus aureus [1]
  Activity: 44.49%
Escherichia coli
  MIC: 16 µg/mL (≈ 30.9 µM)
[2]
  CC50 at 24 h: 62.9 µM
[3]
  MIC: 32 µg/mL (≈ 61.8 µM)
Enterococcus
  MIC: > 128 µg/mL
Klebsiella pneumoniae
  MIC: 64 µg/mL (≈ 124 µM)
Acinetobacter baumannii [4]
  MIC: 16 µg/mL (≈ 30.9 µM)
[5]
  CC50 at 24 h: 36.5 µM
Pseudomonas aeruginosa
  MIC: 128 µg/mL (≈ 247 µM)
Staphylococcus aureus [6]
  MIC: 4 µg/mL (≈ 7.73 µM)
Staphylococcus aureus [7]
  Activity: 100%
Staphylococcus aureus [8]
  MIC: 4 µg/mL (≈ 7.73 µM)
Staphylococcus aureus [9]
  MIC: 32 µg/mL (≈ 61.8 µM)
[10]
  CC50 at 24 h: 74.2 µM
Staphylococcus aureus [11]
  MIC: 128 µg/mL (≈ 247 µM)
Staphylococcus aureus [12]
  MIC: 64 µg/mL (≈ 124 µM)
Acinetobacter baumannii [13]
  MIC: 64 µg/mL (≈ 124 µM)

## C=C[C@]1(C)C[C@@H](OC(=O)COC(=O)/C=C/c2ccc([N+](=O)[O-])cc2)[C@]2(C)[C@H](C)CC[C@]3(CCC(=O)[C@H]32)[C@@H](C)[C@@H]1O
Escherichia coli
  MIC: 32 µg/mL (≈ 57.8 µM)
[2]
  CC50 at 24 h: > 200 µM
[3]
  MIC: 2 µg/mL (≈ 3.61 µM)
Enterococcus
  MIC: 8 µg/mL (≈ 14.4 µM)
Klebsiella pneumoniae
  MIC: 128 µg/mL (≈ 231 µM)
Acinetobacter baumannii [4]
  MIC: 64 µg/mL (≈ 116 µM)
[5]
  CC50 at 24 h: > 200 µM
Pseudomonas aeruginosa
  MIC: 64 µg/mL (≈ 116 µM)
Staphylococcus aureus [6]
  MIC: 2 µg/mL (≈ 3.61 µM)
Staphylococcus aureus [8]
  MIC: 8 µg/mL (≈ 14.4 µM)
Staphylococcus aureus [9]
  MIC: 4 µg/mL (≈ 7.22 µM)
[10]
  CC50 at 24 h: > 200 µM
Staphylococcus aureus [11]
  MIC: 16 µg/mL (≈ 28.9 µM)
Staphylococcus aureus [12]
  MIC: 16 µg/mL (≈ 28.9 µM)
Acinetobacter baumannii [13]
  MIC: 128 µg/mL (≈ 231 µM)

## C=C[C@]1(C)C[C@@H](OC(=O)CSCCN(CC)CC)[C@]2(C)[C@H](C)CC[C@]3(CCC(=O)[C@H]32)[C@@H](C)[C@@H]1O [TIAMULIN]
Escherichia coli
  MIC: 64 µg/mL (≈ 130 µM)
[3]
  MIC: 16 µg/mL (≈ 32.4 µM)
Acinetobacter baumannii [4]
  MIC: 64 µg/mL (≈ 130 µM)
Mycoplasmopsis synoviae
  MIC: 2 µg/mL (≈ 4.05 µM)
Staphylococcus aureus [6]
  MIC: > 128 µg/mL
Staphylococcus aureus [8]
  MIC: 64 µg/mL (≈ 130 µM)
[14]; Mesomycoplasma hyopneumoniae, LH-NCTC10130, 168 h, read-out: MIC
  MIC: 0.015 µg/mL (≈ 0.0304 µM)
Staphylococcus aureus [9]
  MIC: 128 µg/mL (≈ 259 µM)
[15]
  MIC: 0.03 µg/mL (≈ 0.0608 µM)
[16]
  MIC: 0.125 µg/mL (≈ 0.253 µM)
Mesomycoplasma hyorhinis
  MIC: 0.03 µg/mL (≈ 0.0608 µM)

## C=C[C@]1(C)C[C@@H](OC(=O)CSC(C)(C)CNC(=O)[C@H](N)C(C)C)[C@]2(C)[C@H](C)CC[C@]3(CCC(=O)[C@H]32)[C@@H](C)[C@@H]1O [VALNEMULIN]
Escherichia coli
  MIC: 2 µg/mL (≈ 3.54 µM)
Staphylococcus aureus [17]
  Activity: Active
Staphylococcus aureus [18]
  Activity: inactive
[2]
  CC50 at 24 h: 31.1 µM
[3]
  MIC: 64 µg/mL (≈ 113 µM)
Enterococcus
  MIC: 128 µg/mL (≈ 227 µM)
Klebsiella pneumoniae
  MIC: 128 µg/mL (≈ 227 µM)
[19]
  Survival: 40%
Acinetobacter baumannii [4]
  MIC: 2 µg/mL (≈ 3.54 µM)
Mycoplasmopsis synoviae
  MIC: 0.015 µg/mL (≈ 0.0266 µM)
[5]
  CC50 at 24 h: 37.3 µM
Pseudomonas aeruginosa
  MIC: 64 µg/mL (≈ 113 µM)
Staphylococcus aureus [6]
  MIC: 2 µg/mL (≈ 3.54 µM)
Staphylococcus aureus [20]
  Activity: Active
Staphylococcus aureus [21]
  Activity: inactive
Staphylococcus aureus [8]
  MIC: 4 µg/mL (≈ 7.08 µM)
Staphylococcus aureus [22]
  Activity: inactive
[14]
  MIC: 0.3 10^-4 ug/ml
[23]
  Survival: 20%
Staphylococcus aureus [9]
  MIC: > 128 µg/mL
[15]
  MIC: 0.001 µg/mL (≈ 0.00177 µM)
Staphylococcus aureus [24]
  Activity: Active
[10]
  CC50 at 24 h: 46.2 µM
[16]
  MIC: 0.001 µg/mL (≈ 0.00177 µM)
Staphylococcus aureus [11]
  MIC: 128 µg/mL (≈ 227 µM)
Staphylococcus aureus [12]
  MIC: 128 µg/mL (≈ 227 µM)
[25]
  Survival: 70%
Staphylococcus aureus [26]
  ED50: 14 mg/kg
Mesomycoplasma hyorhinis
  MIC: 0.001 µg/mL (≈ 0.00177 µM)
Acinetobacter baumannii [13]
  MIC: 64 µg/mL (≈ 113 µM)
